In patent publication US20170121683A1, “ARYL HYDROCARBON RECEPTOR DISRUPTION AND ENHANCEMENT” (priority 2015, published 2017):

Key:
[1] = tested on: hESC-derived hematopoietic cells; assay: cNK, NKP and ILC3 phenotyping by flow cytometry; assay type: cell-based, human
Description: FIG. 15A. Gating scheme for identifying cNK (CD94^−CD117^+), NK progenitor cells (NKP, CD94^+CD117^− and CD94^+CD117^−LFA1^+), and ILC (CD94^−CD117^+LFA1^−) phenotypes. FIG. 15B. Representative flow cytometry profile of non-adherent hematopoietic cells differentiated from hESCs in the presence of DMSO, SR-1, or TCDD at Day 11+28. FIG. 15C. cNK, NKP, and NKP/ILC subpopulations from Day 11+28 DMSO, SR-1, and TCDD differentiated hESCs assessed for CD56 and LFA (CD11a/CD18) surface antigen expression. Representative flow cytometry plots are shown, n=3. FIG. 15D. Total percentage of cNK, NKP, and NKP/ILCs present in the non-adherent fraction of differentiating hESCs in the presence of DMSO, SR-1, or TCDD at Day 11+28. n=3, error bars represent SEM, *p<0.05, **p<0.01, ***p<0.001 as compared to DMSO treated controls and assessed by two-way ANOVA+Tukey-Kramer multiple comparisons post-hoc test. FIG. 15E. CD94^−CD117^+ subpopulations were further quantified for expression of LFA^+ (NKP) and LFA^− (ILC) by flow cytometry. n=3, error bars represent SEM, *p<0.05, **p<0.01 as compared to DMSO treated controls and assessed by two-way ANOVA+Tukey-Kramer multiple comparisons post-hoc test.
Spin-EBs were generated as described above (see also Knorr et al. Stem Cells Dev. 2013; 22(13):1861-9; Ni et al. Embryonic Stem Cell Immunobiol. Methods Protoc. Methods Mol. Biol. 2013; 1029:33-41; Hermanson et al. Stem Cells. 2016; 34(1):93-101). Following 11 days of mesoderm conditioning (Day 11), spin-EBs were collected and analyzed by flow cytometry to assess hematopoietic progenitor cell potential (see flow cytometry methods for antibodies used) (FIG. 4A). Spin-EBs yielding >30% CD34^+CD45^+ cells were transferred onto 24-well plates coated with irradiated OP9-DL1 cells (as described in Martin et al. Blood. 2008; 112(7):2730-7; La Motte-Mohs et al. Blood. 2005; 105(4):1431-9) (now defined as Day 11+0). EBs and OP9-DL1 were co-cultured in NK differentiation media (NKDM) supplemented initially with SCF, IL-15, IL-7, Flt3-L (all R&D Systems), and IL-3 (PeproTech) for one week; DMSO, SR-1, or TCDD were also added at Day 11+0. Every week, a one-half media change with NKDM supplemented with SCF, IL-15, IL-7, Flt3-L, and drugs was performed. hESCs were differentiated for four additional weeks (Day 11+28) and non-adherent cells were harvested for analysis.
The following additional antibodies were used (all anti-human): LFA-1 (CD11a/CD18)-APC-R700 (BD Biosciences), CD31-APC (eBioscience), CD33-APC (BD Biosciences), CD34-PECy7 (BD Biosciences), CD34-APC (BD Biosciences), CD41a-APC (BD Biosciences), CD43-APC (BD Biosciences), CD45-APC (BD Biosciences), CD56-PECy7 (BD Biosciences), CD56-BV421 (BD Biosciences), CD94-PerCP-Cy5.5 (BD Biosciences), CD117-PECy7 (BD Biosciences), CD117-APC (eBiosciences), CD144-APC (eBioscience). Samples were analyzed on either an LSRFortessa or LSRII flow cytometer (BD Biosciences). Gating was set relative to isotype controls of identical fluorophores. Data from flow cytometry was analyzed using FlowJo software (Treestar, Ashland, Oreg.).
To assess the effects of AHR modification on NK cell and ILC specification, non-adherent hematopoietic cells derived from hESCs on Day 11+28 cultured in NKDM supplemented with DMSO, SR-1, or TCDD were harvested as single-cell suspensions. Cells were washed with DPBS, filtered, and stained with the following antibodies (all anti-human): CD56-BV421, CD94-PerCP-Cy5.5, CD117-PECy7, and LFA-1 (CD11a/CD18)-APC-R700 in sterile FACS Buffer (DPBS+2% FBS and 0.1% sodium azide) for 30 minutes at 4° C. Cells were washed with FACS buffer and cells were counterstained with Sytox Blue (ThermoFisher Scientific) immediately prior to sorting. Live NKP, cNK, and ILC3 populations were sorted directly into FACS tubes containing NKDM basal media using a FACSAria II (BD Biosciences) cell sorter. Cells were immediately centrifuged, washed once with PBS, and processed from total RNA isolation as described above.

[2] = tested on: hESC-derived non-adherent hematopoietic progenitor cells; assay: Hematopoietic colony-forming unit (CFU) assay (Example 2); assay type: cell-based, human; settings: cells harvested at Day 6+5, 14 days in Methocult, n=3
Description: FIG. 9A. Non-adherent hematopoietic progenitor cells derived from hESCs differentiated in the presence of SR-1, TCDD, or DMSO controls were harvested at Day 6+5 and seeded at 50,000 cells/dish in a standard methylcellulose colony-forming unit assay (CFU). Colonies were counted for each treatment group following 2 weeks of culture and scored for the following morphological subsets: BFU-E: burst-forming unit-erythroid; CFU-E: colony-forming unit-erythroid; CFU-GM: colony-forming unit-granulocyte, macrophage, CFU-M: colony-forming unit-macrophage; CFU-GEMM: colony-forming unit-granulocyte, erythroid, macrophage, megakaryocyte. n=3, error bars represent SEM of the total number of colonies/50,000 cells seeded, *p<0.05 as assessed with one-way ANOVA+Tukey-Kramer multiple comparisons post-hoc test. FIG. 9B. Non-adherent hematopoietic progenitor cells derived from hESCs differentiated in the presence of SR-1, TCDD, or DMSO controls were harvested at Day 6+3, Day 6+6, and Day 6+9 time points and probed for gene expression by quantitative real-time PCR (qRT-PCR). […]
Day 6+5 spin-EB non-adherent fractions were resuspended in IMDM. […] Plates were incubated for 14 days and subsequently counted and phenotypically scored using standard criteria (Kaufman et al. Proc. Natl. Acad. Sci. U.S.A. 2001; 98(19):10716-21).

[3] = Day 11+28, non-adherent fraction, n=3

SMILES: Clc1cc2c(cc1Cl)Oc1cc(Cl)c(Cl)cc1O2 [TCDD, 2,3,7,8-tetrachlorodibenzo-p-dioxin]
- shift of NKP population compared to DMSO ([1]; Day 11+28): significantly shifted hESC-derived hematopoietic cells away from NKPs
- percentage of CD94−CD117+ cells absent for LFA1 (ILC3) ([1]; Day 11+28, n=3): 69.4±4.57%
- CD94−CD117+ cells, total percentage [1, 3]: 28.5±4.42%
- total number of colonies / 50,000 cells seeded [2]: 28.3±2.67 colonies

SMILES: CC(C)n1cnc2c(NCCc3ccc(O)cc3)nc(-c3csc4ccccc34)nc21 [SR-1, StemReginin-1]
- change in CD94−CD117+ population compared to DMSO ([1]; Day 11+28): significant reduction
- NKP (CD94+CD117+) cells, total percentage [1, 3]: 16.13±0.58%
- cNK cells (CD94+CD117−), total percentage [1, 3]: 37.0±2.92%
- total number of colonies / 50,000 cells seeded [2]: 245.67±64.4 colonies
